Measurements from patent US11708564B2 (priority 2017, dated 2023).

These compounds were tested on active D-proline reductase (assay: Conversion of D-proline analog substrates by E. coli cells expressing active D-proline reductase (PrdA, PrdB, PrdH), TLC analysis). Details: substrate 10 mM, DTT 25 mM, 6 hours, E. coli BL21(DE3) cells OD 50 in 0.1 M phosphate buffer pH 8.0, TLC.
Assay type: biochemical, Peptoclostridium difficile 630
Procedure: The obtained E. coli cells were adjusted to a final OD of 50, followed by centrifugation. After primary washing, E. coli cells were diluted with 1 mL of 0.1 M phosphate buffer (pH 8.0). Next, each 200 ul of the diluted samples was dispensed, and DTT (final concentration of 25 mM) and various substrates (final concentration of 10 mM, FIG. 11A) were added and allowed to react for 6 hours, followed by TLC analysis.
When cis-4-hydroxy-D-proline or trans-4-hydroxy-D-proline is subjected to the conversion reaction, 5-amino-4-hydroxypentanoic acid is produced.

Row | SMILES | product formation on TLC after the conversion reaction | reaction rate of the conversion by D-proline reductase, compared with D-proline
1 | O=C(O)[C@H]1C[C@@H](O)CN1 [cis-4-hydroxy-D-proline] | substrate reduction on TLC and newly formed TLC spot were observed | relatively low reaction rate, as compared with D-proline
2 | O=C(O)[C@H]1CCN1 [D-azetidine-2-carboxylic acid] | GABA production was clearly observed on TLC | relatively low reaction rate, as compared with D-proline
3 | O=C(O)[C@H]1C[C@H](O)CN1 [trans-4-hydroxy-D-proline] | substrate reduction on TLC and newly formed TLC spot were observed | relatively low reaction rate, as compared with D-proline
